Results: patent US9504702B2, “Methods of inhibition of protein fucosylation in vivo using fucose analogs” (Seattle Genetics, Inc., priority 2010, dated 2016)

Experiments:
[1] = tested on: LP-1, a human multiple myeloma cell line (IgG fucosylation); assay: Fucosylation of LP-1-generated IgG, AOL dot blot; assay type: cell-based
Experimental: To further evaluate the activities of different fucose analogs, 48 different fucose analogs and other four glycosylation inhibitors were tested for their ability to affect the fucosylation the LP-1-generated IgG. LP-1 cells (250,000 cells/mL, 3 mL per compound in 6-well plates) were incubated with 100 μM of each fucose analog for 5 days at 37° C. with a humidified atmosphere of 5% CO2 in IgG-depleted tissue culture media (90% RPMI with 10% IgG-depleted heat inactivated FBS). The IgG was isolated as described above using only 0.5 mL of MabSelect™ protein A resin slurry and one spin cup per sample with elution in 400 μL of IgG elution buffer into 25 μL of 9 M Tris buffer, pH 9. The eluates were concentrated to 10-20 μL per sample and 2 μL of each of the concentrated eluates were dotted onto a nitrocellulose membrane and stained with Ponceau S to estimate and adjust the sample loading for AOL staining. From this estimation of total protein in each sample, approximately 0.5 μg of each sample was dotted onto the membrane, air-dried, and stained with Ponceau S. An image of this stained membrane was captured using an Alpha Innotech FlourChem® Q system. The membrane was then blocked with 5% Bovine Serum Albumin (BSA) in Tris Buffered Saline (TBS) for 1 hr, washed with TBST (TBS with […]) 3 times and then incubated with 5 μg/ml biotinylated-AOL for 1 hr. The membrane was washed again with TBST 3 times, followed by Streptavidin-HRP incubation for 30 min and final washes with TBST 3 times.

[2] = tested on: antibody core fucosylation (antibodies that did not bind to KLH, recovered from protein A column); assay type: in vivo; settings: 100 mM in drinking water for 14 days; non-KLH antibodies; dot blot; untreated 81%
Experimental: Female BALB/c mice were immunized with Keyhole Limpet Hemocyanin (KLH) 30-60 days prior to starting this study. For the first study, mice were dosed ip with 150 mg/kg of alkynyl fucose (SGD-1887), alkynyl fucose peracetate (SGD-1890), 2-fluorofucose (SGD-2083), or 2-fluorofucose triacetate (SGD-2084) daily for 7 days or were untreated. On day 2, mice were also boosted with KLH. On the day after the last ip dose, mice were terminally bled and serum obtained. For the second study, mice were given 100 mM of 2-fluorofucose (SGD-2083) in their drinking water or given untreated water for 7 days, boosted with KLH, and continued with 100 mM 2-fluorofucose containing drinking water or untreated water for 7 more days before being terminally bled. Serum was then obtained. No mice died in either study. For both studies, serum was passed over a commercial anti-KLH affinity column to obtain KLH-specific polyclonal antibodies. […]
Dot blots: 0.5 μg each of antibodies from untreated and treated animals, as well as standards of antibody cAC10 having known amounts of core fucosylation (0 to 100% fucose), were blotted onto a nitrocellulose membrane. […] Gel loading (visible) and fucose signals (bioluminescence) were measured with an Alpha Innotech camera and quantitated with the machine software.

[3] = tested on: P-selectin ligand on Ramos cells; assay: Cell surface P-selectin ligand by FACS, P-selectin fusion protein, Ramos; assay type: cell-based, human
Experimental: 100 μM of each inhibitor was used under standard culture conditions for approximately 1-2 weeks with regular changes of culture medium including fresh inhibitor. After the incubation period, the cells were analyzed by FACS using four different detection reagents: biotinylated-Lens culimaris agglutinin-A (LCA), anti-Lewis' antibody (anti-SSEA1), an anti-Lewis^y antibody (cBR96), and a Recombinant Human P-Selectin/CD62P/Fc Fusion protein. The procedure involved washing of the cells with FACS buffer (PBS+10% bovine serum albumin+0.02% sodium azide) 3 times followed by incubation with the primary detection reagent for 1 hr at 4° C., followed by 3 washes with FACS buffer and then incubation with the secondary detection reagent for 1 hr at 4° C. The cells were finally washed with FACS buffer 3 times and resuspended in FACS buffer and examined using a BD FACScan instrument. […] The P-selectin fusion protein detects P-selectin ligand present on the surface of cells, an interaction which involves the sialyl Lewis' epitope present of the P-selectin ligand.

[4] = tested on: A20 murine lymphoma cells; assay: Tumor vaccine model, killed A20 immunization and live A20 challenge; assay type: in vivo, Female Balb/c mice; settings: 50 mM in drinking water days -14 through +21
Experimental: Female Balb/c mice were immunized by subcutaneous implantation of 1 million A20 murine lymphoma cells (killed by irradiation) on day −21 and day −7. Another group of mice were not given any immunization. On day 0, all mice were inoculated iv with 1.5 or 5 million live A20 cells. On days −14 through +21, mice were provided with 50 mM 2-fluorofucose (SGD-2083) in their drinking water or given regular drinking water. The 8 treatment groups were as follows: • 1. No immunization, 1.5 million live A20 cells, regular drinking water • 2. No immunization, 5 million live A20 cells, regular drinking water • 3. No immunization, 1.5 million live A20 cells, 50 mM SGD-2083 in drinking water • 4. No immunization, 5 million live A20 cells, 50 mM SGD-2083 in drinking water • 5. Immunized, 1.5 million live A20 cells, regular drinking water • 6. Immunized, 5 million live A20 cells, regular drinking water • 7. Immunized, 1.5 million live A20 cells, 50 mM SGD-2083 in drinking water • 8. Immunized, 5 million live A20 cells, 50 mM SGD-2083 in drinking water Results

C#CC(OC(C)=O)[C@@H](OC(C)=O)[C@@H](OC(C)=O)[C@@H](C=O)OC(C)=O (stereo partly shown) [SGD-1890, 5-ethynylarabinose tetraacetate]
inhibition of IgG fucosylation in human cells (decrease in AOL signal, dot blot) ([1]; 100 μM, LP-1 cells): potentially strong inhibitors
dot blot results (% fucose signal of control) ([1]; LP-1-generated IgG, 100 μM): ~1 % fucose signal of control

C[C@H](O)[C@@H](O)[C@@H](O)[C@H](F)C=O [SGD-2083, 2-fluoro-2-deoxy fucose]
fucosylation levels (average, treated animals) [2]: 7%
activity at 100 µM ([1]; Homo sapiens, LP-1, 120 h, 5 days, LP-1 cells, AOL dot blot, multiple samples separated by semicolon, read-out: % of control fucosylated IgG value): 66%
signal for P-selectin ligand (increase upon treatment) [3]: not observed
survival after live A20 challenge ([4]; immunized): still alive at data collection
survival after live A20 challenge ([4]; no immunization, versus regular drinking water): survived a few days longer
